Source: patent publication US12460263B2, “Genetic variants for diagnosis of Alzheimer's disease” (The Hong Kong University of Science and Technology, priority 2019, dated 2025)
“Also recorded” adds a separate entry of the source.

What was measured:
[1] = Association analysis of cognitive performance (MoCA score) and medication history in female AD patients; assay type: in vivo, human; conditions: association with medication history, P=0.0202
Source text: (§1) Subject Recruitment for the Hong Kong Chinese AD Cohort: A cohort of Hong Kong Chinese was recruited from individuals who visited the Specialist Outpatient Department of the Prince of Wales Hospital, the Chinese University of Hong Kong. A total of 427 subjects were recruited: 233 with AD and 194 normal controls (NCs). All subjects were ≥60 years old. The clinical diagnosis of AD was established based on the American Psychiatric Association's Diagnostic and Statistical Manual of Mental Disorders, Fifth Edition (DSM-5). All subjects were given medical history assessment, cognitive and functional assessment through the Montreal Cognitive Assessment (MoCA) test, and neuroimaging assessment by MRI. Each individual's data, including age, sex, education, medical history, and cardiovascular disease history, were recorded. Individuals with any significant neurological disease or psychiatric disorder were excluded. The plasma of subjects was collected and stored at −80° C. as aliquots until use. This study was approved by the Prince of Wales Hospital, the Chinese University of Hong Kong, and the Hong Kong University of Science and Technology. All participants provided written informed consent for both study enrollment and sample collection. Absolute blood cell count was determined by complete blood count (CBC) at the Prince of Wales Hospital. […]

[2] = tested on: serum sST2; assay: Trazodone treatment of mice, serum sST2 level by ELISA; assay type: in vivo, mouse; conditions: 18 mo
Method: Trazodone treatment of mice: Mice were treated with Trazodone or vehicle control either by intraperitoneal (IP) injection or oral administration. For IP injection, mice were daily injected with 50 mg/kg Trazodone or vehicle (saline). For oral administration, mice were daily fed with 100 mg/kg Trazodone or vehicle (water). After the 2 days, 4 days, 7 days or 14 days of treatment, mouse blood was collected by intracardial bleed at time of sacrifice. The blood without anticoagulants was incubated at room temperature for 2 h and then centrifuged at 2,000×g for 20 min. The serum sST2 level was measured using the Mouse ST2/IL-33 R Quantikine ELISA Kit (MST200, R&D).

[3] = tested on: plasma sST2 protein; assay: Association analysis of plasma sST2 protein level (ELISA) and medication in Hong Kong female AD patients; assay type: in vivo, human; conditions: female AD patients taking trazodone (n=15) vs not taking (n=149), Hong Kong Chinese AD cohort, linear regression adjusted for age and population structure, ***P<0.001
Source text: as §1, with “This study was approved by the Prince of Wales Hospital, the Chinese University of Hong Kong, and the Hong Kong University of Science and Technology. All participants provided written informed consent for both study enrollment and sample collection.” left out
Detection of Soluble ST2 Protein by ELISA: Human plasma and CSF soluble ST2 (sST2) protein levels were measured using the Human ST2/IL-33 R Quantikine ELISA Kit (DST200). […]

O=c1n(CCCN2CCN(c3cccc(Cl)c3)CC2)nc2ccccn12 [Trazodone, trazodone]
cognitive performance (MoCA score) [1]: altered cognitive performance
serum sST2 level ([2]; female APP/PS1 mice, daily 100 mg/kg oral for 7 or 14 days vs vehicle, n=5/group, 100 mg/kg): reduction of serum sST2 level; also recorded: down-regulates the serum sST2 level
serum sST2 level ([2]; female wildtype mice, daily 50 mg/kg IP or 100 mg/kg oral for 2 or 4 days vs vehicle, n=2/group): reduction of serum sST2 level; also recorded: down-regulates the serum sST2 level
plasma sST2 level [3]: decreased plasma sST2 level
plasma sST2 level ([3]; listed as trazodone): effective agent to lower plasma sST2 level
